Measurements published in patent US20240287048A1, “SUBSTITUTED ACYL SULFONAMIDES FOR TREATING CANCER” (The Broad Institute, Inc., priority 2020, published 2024).

What was measured:
KAT6A = target: T1, KAT6A (Homo sapiens, UniProt Q92794); test: Kat6a activity assay (TR-FRET, acetylation of biotinylated histone H4 peptide); assay type: biochemical; settings: recombinant human His-tagged Kat6a (amino acids 194-810), 60 mins at 22° C., read-out: KAT6A-DPF/HAT domain IC50 [mol/l] (arithmetic mean)
T1 construct: Recombinant human His-tagged Kat6a protein (amino acids 194-810); His; made in house; host or cells: Baculovirus-infected Sf9 insect cells
Summary of the method: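 His-tagged human Kat6a (aa 194-810, Sf9-expressed) with compound (0.01-20 μM) for 60 min at 22° C., pH 8 Tris buffer, 220 nM biotinylated H4 peptide (aa 1-24) and 600 nM acetyl-CoA. Acetyl-K8 detected by Eu-antibody/SA-XL665 TR-FRET (665/620 nm ratio); IC50 from 4-parameter fit.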

ZR-75-1 cells = test: Proliferation assay in ZR-75-1 cells; assay type: cell-based; settings: Homo sapiens, 144 h, Alamar Blue, read-out: ZR75-1 proliferation assay, EC50[M] (arithmetic mean)
Summary of the method: (§1)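 KAT6A-amplified ZR-75-1 cells (RPMI 1640, 2.5% FBS) and KAT6A-low MDA-MB-436 cells (DMEM/Ham's F12, 2.5% FBS) were seeded at 3000 cells/well. Treatment lasted 144 h at 37 °C, 5% CO2, in triplicate. Viability was read by Alamar Blue (2 h) fluorescence at […].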

MDA-MB-436 cells = test: Proliferation assay in MDA-MB-436 cells (negative control cell line); assay type: cell-based; settings: Homo sapiens, 144 h, Alamar Blue, read-out: MDA-MB-436 proliferation assay, EC50[M] (arithmetic mean)
Summary of the method: as §1

[1] = test system: Salmonella tester strain TA100; test: Bacterial reverse gene mutation test Ames MPF Penta I, TA100; assay type: cell-based
Excerpt: The employed commercial assay Ames MPF Penta I comprises the histidine auxotrophic Salmonella tester strains TA98, TA100, TA1535, TA1537 and two tryptophan auxotrophic tester strains E. coli wp2 (E. coli wp2 [pKM101] and E. coli wp2 uvrA, combined exposure). These strains meet the requirements of the OECD guideline 471 for testing chemicals.
Bacterial strains were exposed to various concentrations of the test compounds in a histidine (His) or tryptophane (Trp) deficient medium. As recommended by ICH S2(R1) guideline, the test was conducted in two assay conditions, with and without addition of microsomal enzymes (S9 mix), taking the potential formation of DNA reactive metabolites via xenobiotic biotransformation into account.
The potential of the test compound to induce gene mutations is assessed by comparing the control with the test compounds treated bacterial cultures.

T1 sequence (Q92794 194-810): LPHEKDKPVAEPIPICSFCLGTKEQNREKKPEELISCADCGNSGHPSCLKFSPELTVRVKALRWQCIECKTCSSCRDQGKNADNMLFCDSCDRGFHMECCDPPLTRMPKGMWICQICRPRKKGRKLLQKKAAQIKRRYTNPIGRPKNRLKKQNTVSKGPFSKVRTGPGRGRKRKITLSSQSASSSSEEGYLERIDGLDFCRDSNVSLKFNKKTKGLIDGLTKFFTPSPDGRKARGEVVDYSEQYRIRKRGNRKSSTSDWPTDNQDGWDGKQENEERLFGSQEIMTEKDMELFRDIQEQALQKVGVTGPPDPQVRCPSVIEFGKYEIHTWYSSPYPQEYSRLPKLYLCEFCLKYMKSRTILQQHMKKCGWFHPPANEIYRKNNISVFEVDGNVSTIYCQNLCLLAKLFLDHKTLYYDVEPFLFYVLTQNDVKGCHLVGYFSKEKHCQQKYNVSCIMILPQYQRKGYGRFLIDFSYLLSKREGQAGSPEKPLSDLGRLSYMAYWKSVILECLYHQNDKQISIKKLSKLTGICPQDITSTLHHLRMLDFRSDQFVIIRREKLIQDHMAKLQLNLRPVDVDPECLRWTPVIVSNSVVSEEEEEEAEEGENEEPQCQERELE

SMILES	IC50 (KAT6A) [µM]	EC50 (ZR-75-1 cells) [M]	EC50 (MDA-MB-436 cells) [M]	Result of the bacterial reverse gene mutation test Ames MPF Penta I, TA100 ([1]; with addition of S9 mix)	Result of the bacterial reverse gene mutation test Ames MPF Penta I, TA100 ([1]; without addition of S9 mix)
CCOc1ccccc1S(=O)(=O)NC(=O)c1cc2ccc(C(C)C)cc2o1 [Example 55, N-(2-Ethoxybenzenesulfonyl)-6-(propan-2-yl)-1-benzofuran-2-carboxamide]	0.596	1.27e-05	> 2e-05	negative	negative
O=C(NS(=O)(=O)c1ccccc1-c1ccccc1)c1cc2ccc(C3CC3)cc2o1 [Example 16, N-([1,1′-biphenyl]-2-sulfonyl)-6-cyclopropyl-1-benzofuran-2-carboxamide]	0.0624	5.93e-06	> 2e-05	negative	negative
